US9340548B2, “Substituted pyrazolo[3,4-a]carbazoles as hepatitis C inhibitors” (priority 2011, dated 2016)

Test system: HCVpp (HCV E1/E2, isolate Con1) entry into Hep3B2.1-7 cells
Assay: microbe, parasite or virus in culture
Assay type: cell-based
Conditions: Hepatitis C virus, 72 h, read-out: EC50 (nM) Example 46

Row | SMILES | EC50
1 | Cn1cc2c(n1)-c1[nH]c3ccc(C(=O)NCc4ccccn4)cc3c1C(C)(C)C2 [Compound 2004] | 109 nM
2 | CC1CC2(Cc3c[nH]nc3-c3[nH]c4ccc(C(=O)NCc5ccccn5)cc4c32)C1 (centres unmarked) [Compound 4004] | 54 nM
3 | CC(C)S(=O)(=O)CCNC(=O)c1ccc2[nH]c3c(c2c1)C1(CCC1)Cc1c[nH]nc1-3 [Compound 3011] | 2.8 nM
4 | CC(C)NC(=O)N1CCC(NC(=O)c2ccc3[nH]c4c(c3c2)C(C)(C)Cc2c[nH]nc2-4)C1 (centres unmarked) [Compound 1118] | 19 nM
5 | COC(=O)c1ccc2[nH]c3c(c2c1)C(C)(C)Cc1c[nH]nc1-3 [Compound 2020] | 97 nM
6 | CC1(C)Cn2cnnc2-c2[nH]c3ccc(C(=O)NCc4ccccn4)cc3c21 [Compound 2001] | 1400 nM
7 | O=C(NC1CCN(C(=O)c2ccccn2)C1)c1ccc2[nH]c3c(c2c1)C1(CCC1)Cc1c[nH]nc1-3 (centres unmarked) [Compound 3018] | 6.7 nM
8 | CC1(C)c2c[nH]nc2-c2[nH]c3ccc(C(=O)NC4CCN(C(=O)c5ncn[nH]5)C4)cc3c21 (centres unmarked) [Compound 5002] | 59 nM
9 | CC1(C)Cc2sc(N)nc2-c2[nH]c3ccc(C(=O)NC4CCS(=O)(=O)C4)cc3c21 (centres unmarked) [Compound 2014] | 280 nM
10 | Cc1ncc2c(n1)-c1[nH]c3ccc(C(=O)NC4CCS(=O)(=O)C4)cc3c1C(C)(C)C2 (centres unmarked) [Compound 2028] | 885 nM
11 | CC1(C)Cc2cnc(N)nc2-c2[nH]c3ccc(C(=O)NCc4ccccn4)cc3c21 [Compound 2022] | 1350 nM
12 | CC1(C)Cc2c[nH]nc2-c2[nH]c3ccc(C(=O)Nc4cccnc4)cc3c21 [Compound 1126] | 65 nM
13 | CC1(C)Cc2c[nH]nc2-c2[nH]c3ccc(C(N)=O)cc3c21 [Compound 1011] | 72 nM
14 | Cc1nc2c(s1)CC(C)(C)c1c-2[nH]c2ccc(C(=O)NC3CCS(=O)(=O)C3)cc12 (centres unmarked) [Compound 2018] | 320 nM
15 | CC1(C)Cc2c[nH]nc2-c2[nH]c3ccc(C(=O)NC4CCN(C(=O)c5ccccn5)C4)cc3c21 (centres unmarked) [Compound 1015] | 12 nM
16 | CC1(C)Cn2ccnc2-c2[nH]c3ccc(C(=O)NC4CCOCC4)cc3c21 [Compound 2012] | 230 nM
17 | CC1(C)Cc2c[nH]nc2-c2[nH]c3ccc(C(=O)N[C@H]4CCOC4)cc3c21 [Compound 1006] | 112 nM
